Results taken from US5985603A, “P2x receptor DNA and protein sequence” (Glaxo Group Limited, priority 1994, dated 1999).

Assays:
P2X mRNA = conditions: rat, RP2 mRNA; cited from earlier work
[1] = target: T1, rat superior cervical ganglion P2X receptor (clone 3) (Rattus norvegicus, UniProt P51577); assay: functional properties of cloned P2X receptors (electrical recordings): clone 3; type: cell-based
T1 construct: The insert appeared to be a full length cDNA; expressed in transfected cells; host or cells: HEK293 cells transfected with pcDNA3 construct p464 (also oocytes injected with in vitro transcribed RNA)
T1 sequence (P51577 1-388): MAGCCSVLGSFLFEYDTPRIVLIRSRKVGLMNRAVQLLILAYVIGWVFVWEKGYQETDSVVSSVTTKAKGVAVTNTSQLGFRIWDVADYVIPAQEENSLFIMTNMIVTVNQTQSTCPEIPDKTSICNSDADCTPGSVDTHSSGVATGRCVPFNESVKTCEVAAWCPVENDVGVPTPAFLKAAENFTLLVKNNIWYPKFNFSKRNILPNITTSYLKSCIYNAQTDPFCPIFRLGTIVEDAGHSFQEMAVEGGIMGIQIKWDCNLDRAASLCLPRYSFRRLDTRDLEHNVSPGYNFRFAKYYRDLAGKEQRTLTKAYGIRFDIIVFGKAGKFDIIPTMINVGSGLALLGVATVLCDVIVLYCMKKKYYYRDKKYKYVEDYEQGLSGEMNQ
Procedure: (§1) HEK 293 cells were transfected by the lipofectin method (Felgner et al., Proc. Nat'l. Acad. Sci. USA 84 7413-7417 (1987)) with P2X -plasmid. DNA concentration used was 1 mg/2 ml medium placed into a 35 mm petri dish containing four 11 mm diameter coverslips on which HEK cells were placed at 10,000 cells per coverslip. […] Currents were recorded from HEK 293 cells using whole-cell recording methods and the AXOPATCH™ 200 amplifier (Axon Instruments); patch pipettes (5 M.OMEGA.) contained (mM) Cs or K aspartate 140, NaCl 5, EGTA 11, HEPES 5. The external solution was (mM) NaCl 150, KCl2, CaCl2 2, MgCl2 1, HEPES 5 and glucose 11; the pH and osmolarity of both solutions were maintained at 7.3 and 305 mosmol/l respectively. All recordings performed at room temperature. Data acquisition and analysis were performed using pCLAMP™ and AXOGRAPH™ software (Axon Instruments). […] The pH and osmolarity of the solutions were 7.4 and 295 mosmol/l respectively. For single channel measurements, a […]™ 500 amplifier and outside-out recording methods were used (Adelman et al., Neuron 9 209-216 (1992)). Wax-coated patch pipettes (5-10 M.OMEGA.) contained (mM) K-gluconate 115, HEPES 5, BAPTA 5 and MgCl2 0.5, external solution was 96 mM NaCl, 2 mM KCl, 1.8 mM CaCl2, 1 mM MgCl2, 5 mM Hepes pH 7.6, and 5 mM sodium pyruvate.
(§2) The functional characterisation of the clone illustrated in FIG. 2 (referred to herein as clone 3) was carried out by electrical recordings from transfected HEK293 cells and from oocytes injected with the in vitro transcribed RNA, as described in Example 4 for the rat vas deferens P2X receptor. Table A summarizes the main properties of clone 3 as compared to those of rat vas/human bladder cDNA clone, and the PC12 cDNA clone (provided by David Julius and Tony Brake of the University of California at San Francisco).

PC12 P2X receptor = target: T2, PC12 P2X receptor (Rattus norvegicus, UniProt P49653); assay: functional properties of cloned P2X receptors (electrical recordings): PC12; type: cell-based
T2 construct: host or cells: HEK293 cells (oocytes are also named for the functional characterisation of clone 3)
T2 sequence (P49653 1-472): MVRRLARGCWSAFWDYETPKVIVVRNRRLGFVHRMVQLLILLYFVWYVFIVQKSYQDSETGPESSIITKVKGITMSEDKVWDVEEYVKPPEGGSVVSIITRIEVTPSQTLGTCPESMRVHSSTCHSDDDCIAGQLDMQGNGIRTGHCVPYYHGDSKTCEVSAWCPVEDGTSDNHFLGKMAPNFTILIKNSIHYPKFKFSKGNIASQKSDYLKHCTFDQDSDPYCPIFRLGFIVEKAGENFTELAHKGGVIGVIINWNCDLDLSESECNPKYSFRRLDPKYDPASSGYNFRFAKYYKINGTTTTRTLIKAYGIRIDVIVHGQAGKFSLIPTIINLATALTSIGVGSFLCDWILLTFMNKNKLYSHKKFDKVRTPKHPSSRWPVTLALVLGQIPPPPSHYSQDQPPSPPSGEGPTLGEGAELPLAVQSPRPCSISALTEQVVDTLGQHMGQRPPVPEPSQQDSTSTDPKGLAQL
Procedure: as §1, §2

P2-purinoceptor = conditions: reported previously for suramin; cited from earlier work
mouse vas deferens = conditions: cited from earlier work
[2] = target: T3, rat vas deferens P2X receptor (Rattus norvegicus, UniProt P47824); assay: radioligand binding in CHO cells stably transfected with rat vas deferens P2X receptor
T3 construct: cRNA in Xenopus oocytes; stably transfected CHO cells
T3 sequence (P47824 1-399): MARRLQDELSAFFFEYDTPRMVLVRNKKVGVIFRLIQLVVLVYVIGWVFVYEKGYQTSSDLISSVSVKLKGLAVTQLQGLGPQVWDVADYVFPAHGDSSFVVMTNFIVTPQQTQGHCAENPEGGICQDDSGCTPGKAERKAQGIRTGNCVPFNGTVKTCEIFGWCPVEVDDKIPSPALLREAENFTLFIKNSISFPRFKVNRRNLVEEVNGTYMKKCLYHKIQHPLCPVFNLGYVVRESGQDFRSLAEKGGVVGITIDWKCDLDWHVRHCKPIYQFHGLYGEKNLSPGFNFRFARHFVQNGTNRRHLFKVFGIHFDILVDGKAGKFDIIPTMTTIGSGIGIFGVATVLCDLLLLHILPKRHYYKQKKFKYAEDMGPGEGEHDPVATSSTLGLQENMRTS
Source text: CHO cells were stably transfected by a method used for other ion channels (Claudio, Meth. Enzymol. 207 391-408 (1992)). Transfection was confirmed by a) electro-physiological recording and b) radioligand binding. […] [^3 H]αβmethyleneATP binding was more than 600 cpm per million transfected cells with less than 80 cpm nonspecific binding.

C[C@@H]1C[C@H]2[C@@H]3CCC4=CC(=O)C=C[C@]4(C)[C@@]3(F)[C@@H](O)C[C@]2(C)[C@@]1(O)C(=O)CO [dexamethasone]
induction of P2X mRNA in immature thymocytes (P2X mRNA): can be induced in immature thymocytes by dexamethasone

Cc1ccc(C(=O)Nc2ccc(S(=O)(=O)O)c3cc(S(=O)(=O)O)cc(S(=O)(=O)O)c23)cc1NC(=O)c1cccc(NC(=O)Nc2cccc(C(=O)Nc3cc(C(=O)Nc4ccc(S(=O)(=O)O)c5cc(S(=O)(=O)O)cc(S(=O)(=O)O)c45)ccc3C)c2)c1 [suramin]
antagonist profile, clone 3 (block) ([1]; Table A, concentration not given): < 40% | sensitivity of ATP-activated currents to antagonism, compared with rat vas deferens/human bladder and PC12 forms ([1]; clone 3 (FIG. 15)): much less sensitive to antagonism | IC50 (PC12 P2X receptor): 6 µM | pA2 (P2-purinoceptor): 5.9 | pKB (mouse vas deferens): 5.2

[^3 H]αβmethyleneATP
binding [2]: more than 600 cpm per million transfected cells | nonspecific binding [2]: less than 80 cpm
